Measurements taken from BigSolDB 2.1.

OC[C@H]1O[C@H](O[C@H]2O[C@H](CO)[C@@H](O)[C@H](O)[C@H]2O)[C@H](O)[C@@H](O)[C@@H]1O
solubility (mole fraction)
Settings	288.15 K	293.15 K	298.15 K	303.15 K	308.15 K	313.15 K	318.15 K
in ethanol	0.000652	0.000701	0.000778	0.000852	0.000905	0.000989	0.00108
in water	0.0344	0.0381	0.0437	0.0545	0.0636	0.0683	0.114
